According to article PMC5398486, “Cheminformatics-aided discovery of small-molecule Protein-Protein Interaction (PPI) dual inhibitors of Tumor Necrosis Factor (TNF) and Receptor Activator of NF-κB Ligand (RANKL)” (PLoS Computational Biology, 2017):
≈ marks a conversion by molar mass, not a printed value. Where two headings read alike, the source gives them in different places.

Columns and labels:
RANKL = molecular target: T1, RANKL (Homo sapiens, UniProt O14788); test: Fluorescence-based binding affinity assay, RANKL; conditions: for 'n' value from Scatchard plot (ligand binding sites per protein molecule): RANKL, binding assay raw data
T1 sequence (O14788 143-317): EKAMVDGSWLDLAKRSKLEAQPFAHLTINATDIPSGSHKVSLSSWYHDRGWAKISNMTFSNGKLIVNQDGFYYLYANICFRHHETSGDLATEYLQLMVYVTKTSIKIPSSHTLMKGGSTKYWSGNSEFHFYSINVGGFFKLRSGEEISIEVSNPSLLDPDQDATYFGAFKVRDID
Procedure: (§1) For use in the binding assays, recombinant TNF and RANKL were expressed and purified as previously described.[84–86] Fluorescence intensity was measure with a Synergy H1 Multi-Mode Reader (BioTek) in 96-well microplates (black) at 25°C. […] During preparation of the solutions the buffer was firstly added to all wells followed by the ligand solution and finally the protein was added. All solutions were mixed by pipetting and equilibrated for 1h at 25°C before measurement. […] Experiments were performed for TNF in 10 mM citrate-phosphate (pH 6.5) and for RANKL in 25 mM Tris–HCl buffer, 100 mM NaCl (pH 7.5); both buffers were supplemented with PEG3350 at the concentrations indicated in the respective figures. Kd values were calculated as mean ± SEM from three independent experiments.
(§2) Differences in fluorescence intensity between the protein/ligand complex and free protein (or free ligand) were analysed as previously described in [Papaneophytou et al. (2013) ACS Med Chem Lett. 4: 137-141] (Eq. S6) in order to determine the dissociation constant (Kd) of the various protein-ligand systems.
(§3) In Eq. (S6) Fobs is the observed fluorescence intensity; FBG is the fluorescence background signal; MFLF [picture] and PF are the molar fluorescence and concentration of free protein, respectively; FR is the fluorescence ratio of bound protein (or bound ligand in the case of a fluorescence ligand); LT and PT are the total concentrations of ligand and protein, respectively. A detailed analysis of the development of the fluorescence ligand-binding assay is given in [Papaneophytou et al. (2013) ACS Med Chem Lett. 4: 137-141].

[1] = Solubility with PEG3350 as co-solvent; assay type: physicochemical
Description: PEG3350 was used as co-solvent in order to enhance inhibitors solubility and thus eliminate the possibility of aggregates formation. | column: Solubility (μM)

TNF [2] = molecular target: T2, TNF (Homo sapiens, UniProt P01375); test: TNF-induced death assay in L929 cells; assay type: cell-based; parameters: purchased PeproTech; conditions: 0.25 ng/mL human TNF + 2 μg/mL actinomycin D, approx. 24 h, read-out: L929 IC50 (inhibition of TNF-induced death)
T2 sequence (P01375 77-233 limits assumed): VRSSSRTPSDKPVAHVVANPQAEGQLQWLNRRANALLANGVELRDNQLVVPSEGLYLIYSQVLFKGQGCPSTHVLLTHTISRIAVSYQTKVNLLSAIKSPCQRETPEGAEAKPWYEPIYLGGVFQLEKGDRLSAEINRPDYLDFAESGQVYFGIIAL
Procedure: L929 cells were cultured on 96-well plates (3×10^4 cells/well) overnight. Then, 0.25 ng/mL human TNF (PeproTech) and 2 μg/mL actinomycin D (Sigma–Aldrich) were added. TNF with the compounds were pre-incubated for 30 min at room temperature before adding them to cells to assess inhibition. Background death was estimated using an actinomycin D treated-only control. After approximately 24 h, dead cells were cleared away by washing with PBS. The remaining live cells were then fixed with methanol and stained with crystal violet. After solubilization with acetic acid, staining was quantified spectrophotometrically at 570 nm. Cytotoxicity is expressed with respect to the background death control and also relative to the toxicity of compounds. Experiments were repeated three times.
Biological screening of the compounds examined their capacity to block TNF function in a modified TNF bioactivity assay.[91] The basis of this test is the death-inducing function of TNF in the murine fibrosarcoma cell line L929 following sensitization by the transcription inhibitor actinomycin D. Functional potency of the compounds would translate in a significant reduction of TNF-induced death. Using this approach, out of the nine shortlisted small molecules, two compounds (T8 and T23) were selected as follows. […]

human RANKL [3] = molecular target: T3, human RANKL (Homo sapiens, UniProt O14788); test: RANKL-induced osteoclastogenesis / osteoclastic (TRAP) activity assay in bone marrow cells; assay type: cell-based; conditions: 50 ng/ml human RANKL + 25 ng/ml M-CSF, read-out: IC50 (RANKL complexes, TRAP activity)
T3 sequence (O14788 140-317 limits assumed): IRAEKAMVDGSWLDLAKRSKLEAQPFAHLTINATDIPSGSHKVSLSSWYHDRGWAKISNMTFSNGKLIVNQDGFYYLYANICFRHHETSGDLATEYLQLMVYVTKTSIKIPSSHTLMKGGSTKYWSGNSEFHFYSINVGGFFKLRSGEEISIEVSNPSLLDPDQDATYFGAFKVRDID
Procedure: To visualize osteoclasts, cell cultures were stained with TRAP (tartrate-resistant acid phosphatase), using an acid phosphatase leukocyte (TRAP) kit (Sigma-Aldrich). Osteoclasts were identified as TRAP-positive multinucleated cells containing more than three nuclei.
To measure osteoclast activity, bone marrow cells were cultured for four days as described above and lysed with 0.2% Triton X-100. TRAP activity was measured by the conversion of p-nitrophenyl phosphate to p-nitrophenol in the presence of sodium tartrate. Thus, cell lysates were incubated with 5.5 mM phosphatase substrate diluted in 100 mM citrate buffer and 10 mM sodium tartrate, for 40 minutes at 37°C. The reaction was stopped by addition of 0.4 N sodium hydroxide and absorbance was measured at 405 nm using a microplate reader (Molecular Devices). TRAP activity was normalized to total protein content as determined by the Bradford assay (Bio-Rad protein assay). TRAP activity per μg of total protein was expressed as a percentage of the positive control treated without compounds. IC50 values were calculated as mean ± SEM from three independent experiments performed in duplicate.

TNF [4] = molecular target: T2, TNF; test: Fluorescence-based binding affinity assay, TNF; parameters: made in house; conditions: for 'n' value from Scatchard plot (ligand binding sites per protein molecule): TNF, binding assay raw data
Procedure: as §1, §2, §3

human RANKL [5] = molecular target: T4, human RANKL (Homo sapiens, UniProt O14788); test: Cross-linking experiments, RANKL trimer formation; assay type: biochemical; conditions: molar ratio of 1:1 relative to RANKL, BS3 cross-linking
T4 construct: purchased Peprotech
T4 sequence (O14788 143-317 limits assumed): T1 sequence (O14788 143-317)
Procedure: (§4) 100 ng of recombinant human TNF or RANKL (Peprotech) were incubated with the inhibitors for 30 min at room temperature and then subjected to cross-linking, using 4.8 mM BS3 (ThermoFisher Scientific) for 30 min at room temperature. The reaction was stopped by adding 1/10th volume of 1 M Tris-HCl, pH 7.5. Samples were then subjected to SDS-PAGE and western blotting using an anti human-TNF or RANKL antibody (both R&D Systems).
(§5) Human TNF or RANKL was incubated with T8 or T23, chemically cross-linked, and subjected to SDS-PAGE. This was followed by western blotting to detect the various TNF and RANKL multimers. Both inhibitors were used at a molar ratio of 4:1 relative to TNF and 1:1 relative to RANKL. Numbers indicate molecular weights in kDa; NC = non cross-linked control (no inhibitor, no cross-linking); CC = cross-linked control (no inhibitor).

TNF [6] = molecular target: T2, TNF; test: Cross-linking experiments, TNF trimer formation; assay type: biochemical; parameters: purchased PeproTech; conditions: molar ratio of 4:1 relative to TNF, BS3 cross-linking
Procedure: as §4, §5

[7] = RANKL 0.5 μM, PEG3350 2.5%, 25 mM Tri-HCl, 100 mM NaCl pH 7.5, read-out: Binding affinity (Kd), RANKL
[8] = RANKL 0.5 μM, PEG3350 5%, 25 mM Tri-HCl, 100 mM NaCl pH 7.5, read-out: Binding affinity (Kd), RANKL
[9] = RANKL 1.5 μM, PEG3350 5%, 25 mM Tri-HCl, 100 mM NaCl pH 7.5, read-out: Binding affinity (Kd), RANKL
[10] = RANKL 2.5 μM, PEG3350 5%, 25 mM Tri-HCl, 100 mM NaCl pH 7.5, read-out: Binding affinity (Kd), RANKL
[11] = fluorescence assay, 25°C, 25 mM Tris-HCl, 100 mM NaCl, pH 7.5, 5% PEG3350, read-out: Kd (RANKL complexes)
[12] = 2.5% v/v PEG3350 as co-solvent, PEG3350 2.5% v/v
[13] = 5% v/v PEG3350 as co-solvent, aqueous with cosolvent or surfactant or cyclodextrin, PEG3350 5% v/v
[14] = TNF 0.75 μM, PEG3350 2.5%, 10 mM Citrate-phosphate buffer pH 6.5, read-out: Binding affinity (Kd), TNF
[15] = TNF 0.75 μM, PEG3350 5%, 10 mM Citrate-phosphate buffer pH 6.5, read-out: Binding affinity (Kd), TNF
[16] = TNF 1.5 μM, PEG3350 5%, 10 mM Citrate-phosphate buffer pH 6.5, read-out: Binding affinity (Kd), TNF
[17] = TNF 2.5 μM, PEG3350 5%, 10 mM Citrate-phosphate buffer pH 6.5, read-out: Binding affinity (Kd), TNF
[18] = fluorescence assay, 25°C, citrate-phosphate buffer, 5% PEG3350, read-out: Kd (TNF complexes)

Row | Structure (SMILES) | Kd (RANKL; [7]) [µM] | Kd (RANKL; [8]) [µM] | Kd (RANKL; [9]) [µM] | Kd (RANKL; [10]) [µM] | 'n' value from Scatchard plot (ligand binding sites per protein molecule) (RANKL) | Kd (RANKL; [11]) [µM] | solubility [1, 12] [µM] | solubility [1, 13] [µM] | solubility ([1]; PEG3350 0% v/v) [µM] | IC50 (TNF [2]) [µM] | IC50 (human RANKL [3]) [µM] | Kd (TNF [4]; [14]) [µM] | Kd (TNF [4]; [15]) [µM] | Kd (TNF [4]; [16]) [µM] | Kd (TNF [4]; [17]) [µM] | 'n' value from Scatchard plot (ligand binding sites per protein molecule) (TNF [4]) | Kd (TNF [4]; [18]) [µM] | formation of RANKL trimers (cross-linking, western blot) (human RANKL [5]) | formation of TNF trimers (cross-linking, western blot) (TNF [6]) | further results
1 | O=C(NNC(=NS(=O)(=O)c1ccc(-n2nc(C(F)(F)F)cc2-c2cccs2)cc1)N1CCCC1)c1ccc(Cl)cc1 [Compound T8, N-[(4-chlorobenzoyl)amino]-N'-[4-[5-thiophen-2-yl-3-(trifluoromethyl)pyrazol-1-yl]phenyl]sulfonylpyrrolidine-1-carboximidamide] | 6.15 ± 0.22 | 6.32 ± 0.62 | 6.55 ± 0.84 | 6.05 ± 0.37 | 1 | 6.3 ± 0.6 | 32 (≈ 19.9 µg/mL) | 48 (≈ 29.9 µg/mL) | < 1 | 40 ± 2.3 | 9 ± 0.7 | 9.55 ± 0.81 | 8.78 ± 0.76 | 9.02 ± 0.88 | 9.17 ± 0.88 | 1 | 8.8 ± 0.8 | obstruct the formation of active TNF and RANKL trimers | obstruct the formation of active TNF and RANKL trimers | 
2 | COc1cc(OC(C)=O)c(-c2cc(OC(C)=O)c(OC)cc2OC(C)=O)cc1OC(C)=O [Compound T23, [4-acetyloxy-2-(2,5-diacetyloxy-4-methoxyphenyl)-5-methoxyphenyl] acetate] | 7.44 ± 0.52 | 7.25 ± 0.44 | 7.62 ± 0.84 | 7.02 ± 0.33 | 1 | 7.3 ± 0.4 | 88 | 117 | 36 | 17 ± 1.2 | 2.6 ± 0.2 | 3.02 ± 0.31 | 2.8 ± 0.19 | 2.63 ± 0.25 | 2.98 ± 0.47 | 1 | 2.8 ± 0.2 | obstruct the formation of active TNF and RANKL trimers | obstruct the formation of active TNF and RANKL trimers | Kd (RANKL; RANKL 0.5 μM, PEG3350 0%, 25 mM Tri-HCl, 100 mM NaCl pH 7.5, read-out: Binding affinity (Kd), RANKL): 7.02 ± 0.63 µM; Kd (TNF [4]; TNF 0.75 μM, PEG3350 0%, 10 mM Citrate-phosphate buffer pH 6.5, read-out: Binding affinity (Kd), TNF): 2.53 ± 0.23 µM
